Assay results published in US20190183939A1, “CELL THERAPY USING MIDBRAIN-TYPE NEURAL STEM CELLS TREATED WITH VITAMIN C” (INDUSTRY-UNIVERSITY COOPERATION FOUNDATION HANYANG …, priority 2017, published 2019).

Tested on: human NSCs derived from hESCs (H9)
Test: VC treatment in human NSC cultures derived from hESCs (H9)
Format: cell-based
Procedure: NSCs were cultured from rat embryo VMs (Sprague Dawley) at embryonic day 12 (E12) on 6-cm dishes or 24-well plates pre-coated with 15 μg/ml poly-L-ornithine (PLO; Sigma)/1 ug/ml fibronectin (FN; Sigma, St. Louis, Mo.) in serum-free N2 medium. NSCs were induced to proliferate by the mitogenic action of basic fibroblast growth factor (bFGF, 20 ng/ml, R&D Systems, Minneapolis, Minn.). The proliferating VM-NSCs cultured in 6-cm dishes were passaged at every 4th day in mitogen-supplemented medium with or without Vitamin C (VC; Sigma; 200 μM), glutathione reduced form (GSH; Sigma; 200 μM), vitamin E (alpha-tocopherol; Sigma; 200 μM), or N-acetylcysteine (NAc; Sigma; 100 μM). The expanded NSCs at the last day of each passage were induced to differentiate by withdrawing the mitogen and antioxidants from the media (for 2-16 days). Human NSC cultures were derived by in vitro differentiation of hESCs (H9) and cultured as described in the following reference. [Rhee, Y. H., Ko, J. Y., Chang, M. Y., Yi, S. H., Kim, D., Kim, C. […] The human NSCs were expanded in ITS media supplemented with bFGF (20 ng/ml) in the presence or absence of VC for two NSC passages. Differentiation of the passaged human NSCs was induced by withdrawal of bFGF and VC in ITS supplemented with brain-derived neurotrophic factor (20 ng/ml; R&D Systems), glial cell line derived neurotrophic factor (20 ng/ml; R&D Systems), and dibutyryl cAMP (0.5 mmol/1; Sigma). Cultures were maintained at 37° C. in humidified 5% CO2 incubators.
The cell growth profile during NSC expansion with several cell passages was generated by counting the number of viable cells at the end of each passage. Cell expansion of each NSC passage was further estimated by the population doubling level (PDL, the level at which the number of cells is doubled), which was determined by log(N/NO)/log 2 (where N is the number of cells at the end of each passage; NO is the number of cells plated initially (1×10^5 cells/cm^2)). DA neuronal cell survival in the absence or presence of toxic insults (500-1000 uM of H2O2 or 6-OHDA) was determined by counting viable TH^+ cells after staining. General cell death and DNA damage were estimated by ethidium heterodimer 1 (EthD1) (Molecular Probes) and γH2AX staining, respectively.
To estimate morphological maturation, total fiber lengths emanating from TH+DA neuronal cells were measured. The pre-synaptic activity of DA neurons was determined by measuring the levels of DA neurotransmitter released in the differentiated VM-NSC cultures. Media incubated for 2 days (differentiation day 13-15) were collected and used in the DA level determinations using an ELISA kit (BA E-5300, LDN). […] The evoked DA release was calculated by subtracting the DA release without KCl from the DA level with KCl.

O=C1O[C@H]([C@@H](O)CO)C(O)=C1O [VC, L-ascorbic acid]
TH+ DA neuronal yields (VC-treated human NSCs, D6): significantly enhanced
neurite branching of TH+ cells (compared to untreated control cultures, D15): more extensive neurite branching
differentiating/differentiated cell survival (hESC-NSC cultures, VC during proliferation, D6): greatly promoted
TH mRNA expression (qRT-PCR): increase
